Experimental data from patent publication US11396516B2, “Tricyclic compounds as Cyp1 inhibitors” (The General Hospital Corporation, priority 2017, dated 2022).
Entries after “also recorded” stand apart in the source; their conditions may differ. Marks after values point to notes of the source that are not given here.

Assays:
[1] = test system: zebrafish embryos treated with DOX (cardiomyopathy phenotype); experiment: Zebrafish doxorubicin cardiomyopathy model (rescue from phenotype); format: in vivo; conditions: visnagin 20 μM plus AHR agonist
[2] = test system: CYP1 enzymes; experiment: Zebrafish CYP1 enzyme levels after DOX treatment; conditions: for levels of CYP1 enzymes after doxorubicin treatment: doxorubicin alone
[3] = test system: LOC100332237; experiment: Zebrafish proteomics; format: in vivo; conditions: zebrafish embryos, 40 hours post-treatment; visnagin 20 μM
[4] = test system: C-reactive protein 3 (CRP3); experiment: Zebrafish proteomics; format: in vivo
Protocol: (§1) Expression levels of 6085 proteins were measured in zebrafish treated with doxorubicin with or without visnagin. […] This is in contrast to other proteins that were modulated to a similar extent in fish treated with doxorubicin but were not reversed by co-treatment with visnagin. For instance, levels of myosin heavy chain B (MYHB) were decreased in fish treated with DOX alone and in fish treated with DOX+visnagin. Downregulation of MYHB has been previously described with DOX treatment (Ito H, PNAS 1990). Likewise, the inflammatory marker C-reactive protein 3 (CRP3) was increased in both DOX and DOX+visnagin-treated fish.

[5] = test system: myosin heavy chain B (MYHB); experiment: Zebrafish proteomics; format: in vivo
Protocol: as §1

[6] = test system: slc2a1a; experiment: Zebrafish proteomics; format: in vivo; conditions: zebrafish embryos, 40 hours post-treatment; visnagin 20 μM
[7] = test system: thbs1b; experiment: Zebrafish proteomics; format: in vivo; conditions: zebrafish embryos, 40 hours post-treatment; visnagin 20 μM
[8] = test system: dhrs13l1; experiment: Zebrafish proteomics; format: in vivo; conditions: zebrafish embryos, 40 hours post-treatment; visnagin 20 μM
[9] = test system: DOX-induced cardiac apoptosis in C57/B16 mice; experiment: Mouse annexin model of acute DOX-induced cardiotoxicity (Anx-750 imaging); format: in vivo
Protocol: DOX fluorescence imaging was carried out on IVIS spectrum with the filter setting 500 nm excitation/600 nm emission, 30 second exposure, with 135 μm in-plane resolution. A series of DOX phantoms, ranging from 0 to 0.03 mM was prepared in saline, and imaged on the IVIS spectrum with identical settings. Anx-750 fluorescence was detected with the filter setting 745 nm excitation/800 nm emission, 30 second exposure, and 135 μm resolution.
Annexin and DOX fluorescence signal was quantified and analyzed in ImageJ (National Institute of Health). For each heart, fluorescence intensity was averaged across 4-6 slices. Annexin uptake was normalized to the saline injected control animals. DOX fluorescence in the heart was quantified by calculating the signal-to-noise ratio (SNR=mean fluorescence intensityheart/standard deviationair). A threshold of two standard deviations above the saline injected control animals was applied to all DOX injected animals, with or without therapeutics. Only animals that met the threshold (thus DOX positive hearts) were included in the analysis. All statistical analysis was performed in Prism (Graphpad).
Doxorubicin was dissolved in 0.9% normal saline and administered at a dose of 15 mg/kg to adult C57/B16 mice via i.p. injection. For the treatment arm, compound of example 2 was dissolved in 10% DMSO and 90% olive oil (carrier) or carrier alone was administered via intraperitoneal injection on the contralateral side.
Twenty-two hours after DOX and treatment injections, Anx-750 (Annexin Vivo 750, Perkin Elmer) was injected intravenously according to manufacturer's instructions. After 2 hours of probe circulation, hearts were excised, sectioned into 1-mm slices along the short axis, and imaged on a commercial imaging system (IVIS spectrum, Perkin Elmer) to assess apoptosis as previously described (Chen et al., 2011).
DOX uptake in the heart was assessed by reflectance fluorescence imaging, and the resultant apoptosis was simultaneously imaged with Anx-750, a near-infrared fluorescent Annexin V probe (Annexin-Vivo 750 is an Annexin V conjugate with a near-infrared fluorochrome, see Chen et al., 2011). […] Referring to FIGS. 1A-1D, * p<0.05, ** p<0.01, and *** p<0.001, ANOVA. Carrier=10% DMSO+90% olive oil.

[10] = test system: cyp1c1; experiment: Zebrafish proteomics; format: in vivo; conditions: zebrafish embryos, 40 hours post-treatment; visnagin 20 μM
Protocol: (§2) The proteomics analysis was carried out as described in the material and methods section. All protein abundance values are normalized to DMSO-treated control zebrafish. * p<0.05 compared to the DMSO control using the Benjamini-Hochberg method of correcting for multiple hypotheses.

[11] = test system: cyp1b1; experiment: Zebrafish proteomics; format: in vivo; conditions: zebrafish embryos, 40 hours post-treatment; visnagin 20 μM
Protocol: as §2

[12] = test system: CYP1A; experiment: Zebrafish proteomics; format: in vivo; conditions: zebrafish embryos, 40 hours post-treatment; visnagin 20 μM
Protocol: as §2

[13] = test system: gstp2; experiment: Zebrafish proteomics; format: in vivo; conditions: zebrafish embryos, 40 hours post-treatment; visnagin 20 μM
[14] = test system: sqstm1; experiment: Zebrafish proteomics; format: in vivo; conditions: zebrafish embryos, 40 hours post-treatment; visnagin 20 μM
[15] = patients treated with DOX; cited from earlier work
[16] = test system: rad9a; experiment: Zebrafish proteomics; format: in vivo; conditions: zebrafish embryos, 40 hours post-treatment; visnagin 20 μM
[17] = test system: HL-1 cardiomyocytes; experiment: Cultured HL-1 cardiomyocyte model (DOX-induced apoptosis, viability); format: cell-based, mouse; conditions: doxorubicin 5 μM
Protocol: The cardiomyocyte cell line HL-1 derived from mouse atrial tumor was a gift from W. Claycomb. Cells were cultured as previously published (Claycomb et al., 1998) and treated with doxorubicin 5 μM with or without the tested compounds at a concentration up to 50 μM. Viability was assessed after 18 hours of using a CellTiter-Glo Luminescent assay from Promega. Each dose-response experiment was repeated three times.
Compounds were tested in HL-1 cultured cardiomyocytes to assess for efficacy in preventing DOX-induced apoptosis. Cell viability was assessed as described in the materials and methods section.

[18] = test system: zebrafish embryos treated with DOX (cardiomyopathy phenotype); experiment: Zebrafish doxorubicin cardiomyopathy model (rescue from phenotype); format: in vivo; conditions: Danio rerio; rescue from DOX (100 μM) cardiomyopathy phenotype, 40 hours post-treatment; read-out: EC50 is zebrafish
Protocol: Zebrafish embryos at 30 hours post-fertilization were treated with DOX at 100 μM in 96-well plates as previously described (Liu et al., 2014). Tested compounds were dissolved in DMSO and added at concentrations ranging from 3 nM to 10 μM (n=6 fish per dose; <1% DMSO v/v). The cardiomyopathy phenotype (decreased cardiac contraction, pericardial edema, and decreased tail blood flow) was assessed under light microscopy (5× magnification) at 40 hours post-treatment (hpt). Percent rescue from the cardiomyopathy phenotype was calculated for each concentration tested. Zebrafish were considered to be rescued from DOX-induced cardiomyopathy if all three features of the phenotype were absent. For the tested compounds, each dose-response experiment was repeated three times.
Dose-response curves were constructed using Prism (GraphPad).
Zebrafish were treated with DOX and assessed for the development of the cardiomyopathy phenotype (decreased cardiac contraction, pericardial edema, and decreased tail blood flow). Zebrafish were considered to be rescued if all three features of the cardiomyopathy phenotype were absent upon co-treatment with a tested compound. Referring to FIGS. 3-9, data are depicted as mean+/−standard error (n=6 fish per dose; each experiment performed in triplicate).

[19] = biological target: CYP2C9 (Homo sapiens (Human), UniProt P11712); experiment: CYP inhibition assay, human liver microsomes; format: biochemical; conditions: diclofenac 10 μM, reference sulfaphenazole
CYP2C9, sequence (P11712 whole entry): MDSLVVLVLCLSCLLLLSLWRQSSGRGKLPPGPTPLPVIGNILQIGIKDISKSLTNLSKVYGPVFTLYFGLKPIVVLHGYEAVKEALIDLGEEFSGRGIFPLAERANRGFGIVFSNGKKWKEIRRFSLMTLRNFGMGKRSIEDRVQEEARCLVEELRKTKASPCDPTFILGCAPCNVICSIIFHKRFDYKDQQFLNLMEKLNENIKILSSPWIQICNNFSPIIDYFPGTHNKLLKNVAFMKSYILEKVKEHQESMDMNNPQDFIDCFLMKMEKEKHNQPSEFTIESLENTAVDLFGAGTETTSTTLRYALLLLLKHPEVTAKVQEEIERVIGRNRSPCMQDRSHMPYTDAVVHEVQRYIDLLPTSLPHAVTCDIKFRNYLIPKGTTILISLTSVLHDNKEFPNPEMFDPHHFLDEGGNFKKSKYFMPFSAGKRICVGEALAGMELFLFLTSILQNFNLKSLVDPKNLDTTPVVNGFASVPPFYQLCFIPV
Protocol: (§3) CYP inhibition experiments were performed by Cerep Panlabs (Eurofins) using human liver microsomes and the following substrates: phenacetin 10 μM (CYP1A), buproprion 100 μM (CYP2B6), paclitaxel 10 μM (CYP2C8), diclofenac 10 μM (CYP 2C9), omeprazole 0.5 μM (CYP2C19), dextromethorphan 5 μM (CYP2D6), and testosterone 50 μM (CYP3A). Metabolites of each substrate were measured using LC-MS/MS. Mean percent inhibition was calculated using the following reference inhibitors: furafylline (CYP1A), clopidogrel (CYP2B6), montelukast (CYP2C8), sulfaphenazole (CYP2C9), oxybutynin (CYP2C19), quinidine (CYP2D6), and ketoconazole (CYP3A). […] All concentrations were tested in duplicate to obtain the final results.
(§4) The ability of the tested compounds to inhibit a panel of CYP enzymes in vitro was assessed using a series of human liver microsome assays.

[20] = biological target: CYP3A (Homo sapiens, UniProt P08684); experiment: CYP inhibition assay, human liver microsomes; format: biochemical
CYP3A, sequence (P08684 2-503 limits assumed): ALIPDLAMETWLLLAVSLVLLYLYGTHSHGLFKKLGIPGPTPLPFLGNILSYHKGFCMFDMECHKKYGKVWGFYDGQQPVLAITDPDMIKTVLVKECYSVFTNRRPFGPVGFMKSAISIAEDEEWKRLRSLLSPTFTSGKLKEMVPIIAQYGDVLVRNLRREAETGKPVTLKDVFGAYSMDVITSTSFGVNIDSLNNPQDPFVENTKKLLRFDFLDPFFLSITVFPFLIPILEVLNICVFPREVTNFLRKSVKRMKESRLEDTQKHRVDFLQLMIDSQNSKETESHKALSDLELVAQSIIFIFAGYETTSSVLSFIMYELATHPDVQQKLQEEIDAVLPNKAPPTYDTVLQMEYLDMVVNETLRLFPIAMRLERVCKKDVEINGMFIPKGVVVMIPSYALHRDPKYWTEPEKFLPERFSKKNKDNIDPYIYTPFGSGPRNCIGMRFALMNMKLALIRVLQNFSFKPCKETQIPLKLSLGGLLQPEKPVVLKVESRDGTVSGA
Protocol: as §3, §4

[21] = biological target: CYP2D6 (Homo sapiens (Human), UniProt P10635); experiment: CYP inhibition assay, human liver microsomes; format: biochemical; conditions: dextromethorphan 5 μM
CYP2D6, sequence (P10635 whole entry): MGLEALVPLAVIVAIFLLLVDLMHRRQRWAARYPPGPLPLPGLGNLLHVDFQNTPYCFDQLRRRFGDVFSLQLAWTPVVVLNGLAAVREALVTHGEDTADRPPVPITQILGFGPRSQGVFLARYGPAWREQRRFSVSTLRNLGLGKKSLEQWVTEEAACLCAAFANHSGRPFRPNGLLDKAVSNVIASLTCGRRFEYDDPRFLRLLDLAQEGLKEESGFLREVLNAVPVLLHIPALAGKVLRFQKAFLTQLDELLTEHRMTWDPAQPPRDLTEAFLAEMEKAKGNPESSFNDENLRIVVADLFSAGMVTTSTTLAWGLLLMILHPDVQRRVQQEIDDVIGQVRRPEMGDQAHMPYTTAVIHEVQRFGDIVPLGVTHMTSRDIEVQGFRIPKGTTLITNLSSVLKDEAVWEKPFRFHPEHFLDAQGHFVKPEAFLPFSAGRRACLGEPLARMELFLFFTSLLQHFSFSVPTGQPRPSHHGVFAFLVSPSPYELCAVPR
Protocol: as §3, §4

[22] = biological target: CYP2C8 (Homo sapiens (Human), UniProt P10632); experiment: CYP inhibition assay, human liver microsomes; format: biochemical; conditions: paclitaxel 10 μM, reference montelukast
CYP2C8, sequence (P10632 whole entry): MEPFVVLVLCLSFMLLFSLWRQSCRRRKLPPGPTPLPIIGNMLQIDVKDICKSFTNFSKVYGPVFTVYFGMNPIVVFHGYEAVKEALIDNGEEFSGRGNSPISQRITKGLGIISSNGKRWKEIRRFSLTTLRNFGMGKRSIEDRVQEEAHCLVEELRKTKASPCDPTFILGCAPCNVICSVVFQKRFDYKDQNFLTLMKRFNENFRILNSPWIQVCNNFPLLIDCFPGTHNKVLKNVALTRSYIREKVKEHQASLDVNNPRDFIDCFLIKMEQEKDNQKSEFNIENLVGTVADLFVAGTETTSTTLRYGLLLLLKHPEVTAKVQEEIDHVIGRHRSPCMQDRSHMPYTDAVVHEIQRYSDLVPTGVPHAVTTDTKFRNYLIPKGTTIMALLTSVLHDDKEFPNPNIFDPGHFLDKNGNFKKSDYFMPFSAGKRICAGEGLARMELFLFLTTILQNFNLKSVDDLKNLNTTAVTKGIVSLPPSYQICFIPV
Protocol: as §3, §4

[23] = biological target: CYP2C19 (Homo sapiens (Human), UniProt P33261); experiment: CYP inhibition assay, human liver microsomes; format: biochemical; conditions: omeprazole 0.5 μM
CYP2C19, sequence (P33261 whole entry): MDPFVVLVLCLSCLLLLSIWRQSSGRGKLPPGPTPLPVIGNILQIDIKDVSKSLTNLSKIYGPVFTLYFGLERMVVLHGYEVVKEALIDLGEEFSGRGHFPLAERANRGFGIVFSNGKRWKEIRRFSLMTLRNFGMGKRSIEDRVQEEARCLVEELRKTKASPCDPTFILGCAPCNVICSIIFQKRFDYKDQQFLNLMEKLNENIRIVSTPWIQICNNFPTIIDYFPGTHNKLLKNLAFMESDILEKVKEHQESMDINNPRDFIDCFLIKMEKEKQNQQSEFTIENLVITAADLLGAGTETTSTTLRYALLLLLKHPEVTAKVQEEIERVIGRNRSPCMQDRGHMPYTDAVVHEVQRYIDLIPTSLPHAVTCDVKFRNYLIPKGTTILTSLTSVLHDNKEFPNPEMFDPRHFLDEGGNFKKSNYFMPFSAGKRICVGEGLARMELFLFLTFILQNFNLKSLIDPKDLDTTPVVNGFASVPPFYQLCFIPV
Protocol: as §3, §4

[24] = biological target: CYP1A (Homo sapiens (Human), UniProt P05177); experiment: CYP inhibition assay, human liver microsomes; format: biochemical; conditions: human liver microsomes, phenacetin 10 μM; read-out: IC50 (M) CYP1A
CYP1A (Homo sapiens (Human), UniProt P05177), sequence (P05177 whole entry): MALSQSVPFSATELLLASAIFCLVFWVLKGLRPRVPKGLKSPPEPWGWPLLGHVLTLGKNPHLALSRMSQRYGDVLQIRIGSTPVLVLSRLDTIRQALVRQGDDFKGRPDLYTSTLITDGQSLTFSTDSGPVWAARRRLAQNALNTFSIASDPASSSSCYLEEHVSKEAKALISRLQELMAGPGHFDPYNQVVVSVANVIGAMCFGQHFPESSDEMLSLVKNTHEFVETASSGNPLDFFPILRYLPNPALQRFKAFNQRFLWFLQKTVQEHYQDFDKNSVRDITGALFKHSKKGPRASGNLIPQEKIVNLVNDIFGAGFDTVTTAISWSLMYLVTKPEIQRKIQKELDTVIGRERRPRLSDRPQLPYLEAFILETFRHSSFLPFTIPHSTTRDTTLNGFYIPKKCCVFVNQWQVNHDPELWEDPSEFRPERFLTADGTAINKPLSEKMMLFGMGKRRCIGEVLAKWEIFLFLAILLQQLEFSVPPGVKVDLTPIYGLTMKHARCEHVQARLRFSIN
Protocol: as §3, §4

[25] = biological target: CYP2B6 (Homo sapiens (Human), UniProt P20813); experiment: CYP inhibition assay, human liver microsomes; format: biochemical; conditions: buproprion 100 μM
CYP2B6, sequence (P20813 whole entry): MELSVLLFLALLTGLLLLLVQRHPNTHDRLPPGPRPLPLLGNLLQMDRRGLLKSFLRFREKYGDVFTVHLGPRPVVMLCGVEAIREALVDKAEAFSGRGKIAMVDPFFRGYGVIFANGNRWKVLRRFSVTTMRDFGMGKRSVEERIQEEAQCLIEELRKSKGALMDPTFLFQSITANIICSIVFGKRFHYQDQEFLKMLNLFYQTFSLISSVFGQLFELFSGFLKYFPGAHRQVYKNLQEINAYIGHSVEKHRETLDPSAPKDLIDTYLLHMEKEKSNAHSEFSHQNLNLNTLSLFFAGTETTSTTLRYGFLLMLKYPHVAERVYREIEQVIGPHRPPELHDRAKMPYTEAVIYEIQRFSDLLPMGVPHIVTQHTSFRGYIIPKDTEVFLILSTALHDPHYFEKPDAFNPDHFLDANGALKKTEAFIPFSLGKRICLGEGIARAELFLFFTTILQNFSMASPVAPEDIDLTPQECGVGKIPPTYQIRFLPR
Protocol: as §3, §4

[26] = test system: zebrafish embryos; experiment: Zebrafish toxicity in the absence of doxorubicin (TD50); conditions: absence of doxorubicin treatment
Protocol: Dose-response curves were constructed using Prism (GraphPad). Raw data representing percent rescue at each dose was log-transformed, and EC50 values were calculated using nonlinear regression analysis. The median toxic dose (TD50) was defined for each compound by assessing for pericardial edema, non-specific deformities, and death in the absence of doxorubicin treatment (data not shown). Concentrations at and above the TD50 (toxic dose) were excluded from dose-response curves.

[27] = test system: CYP1A; experiment: Zebrafish CYP1A Western blot; format: in vivo; conditions: co-treatment with DOX, 10 μM
Protocol: Assessing RNA and protein levels was performed using quantitative PCR (FIG. 2A) and Western blot with a zebrafish-specific antibody against CYP1A (FIG. 2B). […] This effect was seen as early as 18 hours post-treatment, prior to the development of the cardiomyopathy phenotype at 42 hours post-treatment.

## COC(=O)c1csc(C(=O)c2c[nH]c3ccccc23)n1 [methyl 2-(1H-indole-3-carbonyl)-1,3-thiazole-4-carboxylate]
[1]
  effect on visnagin-mediated rescue from doxorubicin-induced cardiomyopathy: abrogated

## COc1cccc2c1C(=O)c1c(O)c3c(c(O)c1C2=O)C[C@@](O)(C(=O)CO)C[C@@H]3O[C@H]1C[C@H](N)[C@H](O)[C@H](C)O1 [DOX, doxorubicin]
[2]
  levels of CYP1 enzymes after doxorubicin treatment: robust induction
[2]; listed as doxorubicin
  levels of CYP1 enzymes after doxorubicin treatment: significant upregulation; also recorded: significantly increased
[3]
  Protein Abundance (Normalized to DMSO) LOC100332237: 3.03*
[4]
  levels of C-reactive protein 3 (CRP3): increased
[5]
  levels of myosin heavy chain B (MYHB): decreased
[6]
  Protein Abundance (Normalized to DMSO) slc2a1a: 1.19
[7]
  Protein Abundance (Normalized to DMSO) thbs1b: 2.29*
[8]
  Protein Abundance (Normalized to DMSO) dhrs13l1: 3.02*
[9]; DOX 15 mg/kg + carrier vs saline control
  cardiac annexin uptake, DOX only group: increased significantly
[10]
  Protein Abundance (Normalized to DMSO) cyp1c1: 7.91*
[11]
  Protein Abundance (Normalized to DMSO) cyp1b1: 6.26*
[12]
  Protein Abundance (Normalized to DMSO) cyp1a: 9.52*
[13]
  Protein Abundance (Normalized to DMSO) gstp2: 2.32*
[14]
  Protein Abundance (Normalized to DMSO) sqstm1: 2.78*
[15]
  patients with dose-dependent cardiotoxicity: up to 9%
[16]
  Protein Abundance (Normalized to DMSO) rad9a: 2.92*

## CC(C)(C)OC(=O)NCCCOc1c2ccoc2cc2oc(=O)ccc12 [Example 2, tert-butyl (3-((7-oxo-7H-furo[3,2-g]chromen-4-yl)oxy)propyl)carbamate]
[2]; co-treatment with doxorubicin
  effect on DOX-induced increase of CYP1 enzyme levels: completely abolished
[17]; Mus musculus, HL-1, viability after 18 hours, CellTiter-Glo, read-out: EC50 in HL-1 Cells
  EC50: > 50 µM
[17]; doses up to 50 μM
  efficacy in HL-1 cell culture model: ineffective
[18]
  EC50: 0.007 µM
[9]; DOX 15 mg/kg i.p., doses of 0.1 mg/kg, 1 mg/kg and 2 mg/kg i.p., 24 hours
  cardiac apoptosis / Annexin (Anx-750) uptake: significant reduction in apoptosis; also recorded: reduced significantly; also recorded: significant cardioprotective effect
[9]; DOX 15 mg/kg, 0.1 mg/kg i.p.
  Annexin-Vivo fluorescence in the mouse heart / cardioprotection: significantly reduced; also recorded: cardioprotective
[9]; DOX 15 mg/kg, dose of 2 mg/kg
  ex vivo Anx fluorescence in heart: marked reduction
[9]; compared to visnagin
  potency relative to visnagin in reducing DOX-induced cardiomyocyte apoptosis in mice: 250 fold
[19]
  Mean % Inhibition CYP2C9: 2.4%
[20]; probe testosterone 50 μM
  IC50: 9.3 µM
[20]; testosterone 50 μM, reference ketoconazole
  Mean % Inhibition CYP3A: 62.7%
[21]
  IC50: 2 µM
[21]; reference quinidine
  Mean % Inhibition CYP2D6: 84.4%
[22]
  Mean % Inhibition CYP2C8: 7.1%
[23]
  IC50: 12 µM
[23]; reference oxybutynin
  Mean % Inhibition CYP2C19: 57.0%
[24]
  IC50: 1.6e-06 M
[25]
  IC50: 88 µM
[25]; reference clopidogrel
  Mean % Inhibition CYP2B6: 67.2%
[26]
  toxic dose TD50 in the zebrafish model: > 10 µM
[27]
  induction of CYP1A by DOX, Western blot: mitigated induction of CYP1A
